The nature of this data set: pKa of weakly basic centre. Type of data set: physicochemical. Particulars: N-7 of the azaindole portion. An excerpt:
Propane-1-sulfonic acid {3-[5-(4-chloro-phenyl)-1H-pyrrolo[2,3-b]pyridine-3-carbonyl]-2,4-difluoro-phenyl}-amide is characterized as having functionalities providing both weakly basic and weakly acidic centers which can form organic salt complexes, resulting in improved solubility. For example, the N-7 of the azaindole portion is weakly basic (pKa approximately 4-5) and can form an acid addition salt complex with an organic acid such as benzenesulfonic acid, methylsulfonic acid or toluenesulfonic acid, preferably methanesulfonic acid or toluenesulfonic acid. Such mesylate or tosylate salts provide advantage over the free base, such as an improved solubility, improved intrinsic dissolution rate, and lower melting point than the free base. The improved intrinsic dissolution rate provides an advantage in formulation of the salt, for example, formulation in an amorphous form by methods described in the above examples. The improved solubility provides more efficient and cost effective formulation, for example spray drying or microprecipitated bulk processing can be performed using far less solvent volumes due to the intrinsic solubility. Such advantages may also be provided by formation of the mesylate or tosylate salt in situ during the processing, for example the process of spray drying, solvent controlled precipitation, or pH controlled precipitation. […]

Compound `CCCS(=O)(=O)Nc1ccc(F)c(C(=O)c2c[nH]c3ncc(-c4ccc(Cl)cc4)cc23)c1F` [Compound I, propane-1-sulfonic acid {3-[5-(4-chloro-phenyl)-1H-pyrrolo[2,3-b]pyridine-3-carbonyl]-2,4-difluoro-phenyl}-amide] came in with a pKa of 4 to 5.

In general, pKa refers to the pH at which an ionisable group is half protonated. A low value points to a group that gives up its proton readily.

The record behind these values is US9663517B2, “Compositions and uses thereof” (Plexxikon Inc., priority 2009, dated 2017).
